In patent publication US8598211B2, “Carboxamide compounds and their use as calpain inhibitors IV” (AbbVie Inc., priority 2009, dated 2013):
pKi: −log10 of the molar value.

Key:
Format in all cases: biochemical
cathepsin L = biological target: T1, cathepsin L (Homo sapiens, UniProt P07711); test: Cathepsin L kinetic fluorescence enzyme inhibition assay; conditions: selectivity ratio versus calpain
T1 construct: cathepsin L—isolated from human liver; purchased Calbiochem 219402; host or cells: human liver (natural source)
Description: 1 nM cathepsin L—isolated from human liver (Calbiochem #219402), 2 μM Z-Phe-Arg-AMC (Bachem #I-1160) as substrate in 50 mM MES, 2 mM EDTA, 0.05% Brij 35, 2.5 mM L-cysteine, pH 6.0, room temperature.

cathepsin S = biological target: T2, cathepsin S (Homo sapiens, UniProt P25774); test: Cathepsin S kinetic fluorescence enzyme inhibition assay; conditions: selectivity ratio versus calpain
T2 construct: purchased Calbiochem 219343; host or cells: E. coli
Description: 0.5 nM recombinant human cathepsin S from E. coli (Calbiochem #219343), 20 μM Z-Val-Val-Arg-AMC (Bachem #I-1540) as substrate in 50 mM MES, 2 mM EDTA, 0.05% Brij 35, 2.5 mM L-cysteine, pH 6.0, room temperature.

calpain-I = biological target: T3, calpain-I (Homo sapiens, UniProt P07384); test: Calpain I kinetic fluorescence enzyme inhibition assay; conditions: calpain-I from human erythrocytes, Suc-Leu-Tyr-AMC, pH 7.3; apparent Ki from IC50 by Cheng-Prussoff
T3 construct: calpain-I—isolated from human erythrocytes; purchased Calbiochem 208713; host or cells: human erythrocytes (natural source)
T3 sequence (P07384 1-714): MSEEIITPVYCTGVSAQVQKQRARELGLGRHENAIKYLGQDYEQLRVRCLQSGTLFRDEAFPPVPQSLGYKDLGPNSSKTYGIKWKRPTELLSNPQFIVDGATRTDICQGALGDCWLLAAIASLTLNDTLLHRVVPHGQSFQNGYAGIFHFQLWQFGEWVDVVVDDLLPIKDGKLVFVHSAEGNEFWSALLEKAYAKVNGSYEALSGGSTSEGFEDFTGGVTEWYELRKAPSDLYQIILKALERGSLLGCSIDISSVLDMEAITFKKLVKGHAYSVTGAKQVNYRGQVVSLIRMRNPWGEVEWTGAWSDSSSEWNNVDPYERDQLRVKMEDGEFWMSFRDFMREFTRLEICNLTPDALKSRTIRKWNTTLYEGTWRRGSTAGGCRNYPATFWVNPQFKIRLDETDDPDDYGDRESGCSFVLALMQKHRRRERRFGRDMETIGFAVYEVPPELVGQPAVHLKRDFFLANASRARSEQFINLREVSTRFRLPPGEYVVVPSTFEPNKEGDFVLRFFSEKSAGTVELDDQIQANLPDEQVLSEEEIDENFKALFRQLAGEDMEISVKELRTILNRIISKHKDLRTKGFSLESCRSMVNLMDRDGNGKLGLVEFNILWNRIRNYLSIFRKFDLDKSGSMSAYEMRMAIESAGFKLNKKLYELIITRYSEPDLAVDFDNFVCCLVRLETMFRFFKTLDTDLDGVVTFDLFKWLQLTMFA
T3 sequence (P04632 1-268 partner): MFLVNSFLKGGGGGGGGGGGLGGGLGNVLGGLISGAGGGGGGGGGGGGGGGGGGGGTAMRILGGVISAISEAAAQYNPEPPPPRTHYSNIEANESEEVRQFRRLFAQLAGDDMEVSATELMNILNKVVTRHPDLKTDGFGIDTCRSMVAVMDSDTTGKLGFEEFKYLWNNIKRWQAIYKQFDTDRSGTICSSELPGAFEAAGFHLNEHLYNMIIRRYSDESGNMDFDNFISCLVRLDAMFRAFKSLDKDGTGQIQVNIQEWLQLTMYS
Description: Testing for blockade of the corresponding enzymic activities was carried out by means of kinetic fluorescence assays (excitation 390 nm, emission 460 nm).
Apparent Ki values were calculated from the experimentally determined IC50 values by the Cheng-Prussoff relation assuming a reversible competitive enzyme inhibition.
20 nM calpain-I—isolated from human erythrocytes (Calbiochem #208713), 100 μM Suc-Leu-Tyr-AMC (Bachem #I-1355) as substrate in buffer with 62 mM imidazole, 0.3 mM CaCl2, 0.10% CHAPS, 0.05% BSA, 1 mM DTT at pH 7.3 and room temperature.

cathepsin B = biological target: T4, cathepsin B (Homo sapiens, UniProt P07858); test: Cathepsin B kinetic fluorescence enzyme inhibition assay; conditions: selectivity ratio versus calpain
T4 construct: cathepsin B—isolated from human liver; purchased Calbiochem 219362; host or cells: human liver (natural source)
Description: 0.25 nM cathepsin B—isolated from human liver (Calbiochem #219362), 100 μM Z-Phe-Arg-AMC (Bachem #I-1160) as substrate 50 mM MES, 2 mM EDTA, 0.05% Brij 35, 2.5 mM L-cysteine, pH 6.0, room temperature.

cathepsin K = biological target: T5, cathepsin K (Homo sapiens, UniProt P43235); test: Cathepsin K kinetic fluorescence enzyme inhibition assay; conditions: selectivity ratio versus calpain
T5 construct: purchased Calbiochem 342001; host or cells: E. coli
T5 sequence (P43235 115-329): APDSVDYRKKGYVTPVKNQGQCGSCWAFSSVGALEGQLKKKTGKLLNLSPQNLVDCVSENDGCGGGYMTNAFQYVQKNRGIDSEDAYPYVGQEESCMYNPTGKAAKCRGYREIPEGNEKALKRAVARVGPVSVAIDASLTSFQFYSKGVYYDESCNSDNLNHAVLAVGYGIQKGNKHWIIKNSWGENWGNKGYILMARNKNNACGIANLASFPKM
Description: 3 nM cathepsin K—activated from recombinant human procathepsin K from E. coli (Calbiochem #342001), 10 μM Z-Gly-Pro-Arg-AMC (Biomol #P-142) as substrate in 50 mM MES, 2 mM EDTA, 0.05% Brij 35, 2.5 mM L-cysteine, pH 6.0, room temperature.

T2 sequence (P25774 115-331): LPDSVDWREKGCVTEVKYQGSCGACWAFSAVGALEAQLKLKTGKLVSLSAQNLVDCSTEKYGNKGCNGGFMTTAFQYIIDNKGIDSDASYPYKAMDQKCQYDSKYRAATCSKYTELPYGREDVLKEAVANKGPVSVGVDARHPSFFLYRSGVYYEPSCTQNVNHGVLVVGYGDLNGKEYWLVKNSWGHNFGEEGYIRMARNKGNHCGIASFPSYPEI
T1 sequence (P07711 114-333): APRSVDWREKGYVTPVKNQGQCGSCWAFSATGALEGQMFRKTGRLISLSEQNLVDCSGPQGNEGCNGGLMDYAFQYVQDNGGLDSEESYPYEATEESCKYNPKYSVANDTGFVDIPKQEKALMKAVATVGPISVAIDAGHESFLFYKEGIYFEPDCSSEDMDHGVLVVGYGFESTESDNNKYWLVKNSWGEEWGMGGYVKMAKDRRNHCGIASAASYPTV

| SMILES | Sel cat. L (Ki(cathepsin L)/Ki(calpain) ratio) (cathepsin L) | Sel cat. S (Ki(cathepsin S)/Ki(calpain) ratio) (cathepsin S) | pKi (calpain-I) | Sel cat. B (Ki(cathepsin B)/Ki(calpain) ratio) (cathepsin B) | Sel cat. K (Ki(cathepsin K)/Ki(calpain) ratio) (cathepsin K) |
| --- | --- | --- | --- | --- | --- |
| O=C(NC1CC1)C(=O)C(Cc1ccccc1)NC(=O)c1cccnc1-n1ccc(-c2cccc(N3CCOCC3)c2)n1 (stereo not drawn) [Example 26, N-[4-(Cyclopropylamino)-3,4-dioxo-1-phenyl-2-butanyl]-2-{3-[3-(4-morpholinyl)phenyl]-1H-pyrazol-1-yl}nicotinamide] | ++ (10<Ki(cathepsin L)/Ki(calpain)≦50) | ++ (10<Ki(cathepsin S)/Ki(calpain)≦50) | 6.10 to 6.40 | + (5≦Ki(cathepsin B)/Ki(calpain)≦9) | ++ (9<Ki(cathepsin K)/Ki(calpain)≦30) |
| O=C(NC1CC1)C(=O)C(Cc1ccccc1)NC(=O)[C@H]1CCC(=O)N1Cc1ccccc1F (mixture of isomers) [Example 30, (2R)—N-(4-(cyclopropylamino)-3,4-dioxo-1-phenylbutan-2-yl)-1-(2-fluorobenzyl)-5-oxopyrrolidine-2-carboxamide] | ++ (10<Ki(cathepsin L)/Ki(calpain)≦50) | +++ (Ki(cathepsin S)/Ki(calpain) ratio of >50) | 6.10 to 6.40 | ++ (9<Ki(cathepsin B)/Ki(calpain)≦30) | +++ (Ki(cathepsin K)/Ki(calpain) ratio of >30) |
| O=C(NCc1nc2ccccc2[nH]1)C(=O)C(Cc1ccccc1)NC(=O)c1cccnc1-n1ccc(-c2ccccc2)n1 (stereo not drawn) [Example 20, N-{4-[(1H-Benzimidazol-2-ylmethyl)amino]-3,4-dioxo-1-phenyl-2-butanyl}-2-(3-phenyl-1H-pyrazol-1-yl)nicotinamide] | ++ (10<Ki(cathepsin L)/Ki(calpain)≦50) | ++ (10<Ki(cathepsin S)/Ki(calpain)≦50) | 6.00 to 6.10 | ++ (9<Ki(cathepsin B)/Ki(calpain)≦30) | ++ (9<Ki(cathepsin K)/Ki(calpain)≦30) |

The next lines start with the values.

| Sel cat. L (Ki(cathepsin L)/Ki(calpain) ratio) (cathepsin L) | Sel cat. S (Ki(cathepsin S)/Ki(calpain) ratio) (cathepsin S) | pKi (calpain-I) | Sel cat. B (Ki(cathepsin B)/Ki(calpain) ratio) (cathepsin B) | Sel cat. K (Ki(cathepsin K)/Ki(calpain) ratio) (cathepsin K) | SMILES |
| --- | --- | --- | --- | --- | --- |
| ++ (10<Ki(cathepsin L)/Ki(calpain)≦50) | ++ (10<Ki(cathepsin S)/Ki(calpain)≦50) | 6.40 to 6.60 | ++ (9<Ki(cathepsin B)/Ki(calpain)≦30) | ++ (9<Ki(cathepsin K)/Ki(calpain)≦30) | O=C(NCCc1ccccc1)C(=O)C(Cc1ccccc1)NC(=O)c1cccnc1-n1ccc(-c2ccc(F)cc2)n1 (stereo not drawn) [Example 1, N-{3,4-Dioxo-1-phenyl-4-[(2-phenylethyl)amino]butan-2-yl}-2-[3-(4-fluorophenyl)-1H-pyrazol-1-yl]pyridine-3-carboxamide] |
| ++ (10<Ki(cathepsin L)/Ki(calpain)≦50) | ++ (10<Ki(cathepsin S)/Ki(calpain)≦50) | 6.40 to 6.60 | ++ (9<Ki(cathepsin B)/Ki(calpain)≦30) | ++ (9<Ki(cathepsin K)/Ki(calpain)≦30) | COc1ccc(CC(NC(=O)c2cccnc2-n2ccc(-c3ccccc3)n2)C(=O)C(=O)NC2CC2)cc1 (stereo not drawn) [Example 22, N-[4-(Cyclopropylamino)-1-(4-methoxyphenyl)-3,4-dioxo-2-butanyl]-2-(3-phenyl-1H-pyrazol-1-yl)nicotinamide] |
| ++ (10<Ki(cathepsin L)/Ki(calpain)≦50) | ++ (10<Ki(cathepsin S)/Ki(calpain)≦50) | 6.40 to 6.60 | ++ (9<Ki(cathepsin B)/Ki(calpain)≦30) | ++ (9<Ki(cathepsin K)/Ki(calpain)≦30) | O=C(NCCc1ccccn1)C(=O)C(Cc1ccccc1)NC(=O)c1cccnc1-n1ccc(-c2ccc(F)cc2)n1 (stereo not drawn) [Example 3, N-(3,4-Dioxo-1-phenyl-4-{[2-(pyridin-2-yl)ethyl]amino}butan-2-yl)-2-[3-(4-fluorophenyl)-1H-pyrazol-1-yl]pyridine-3-carboxamide] |
